Experiments:
Assay type in all cases: in vivo
[1] = system: German cockroaches (Blattella germanica); assay: Test Example 2: oil solution spray knock-down test on German cockroaches; conditions: 0.00625% (w/v) oil solution, 1.5 ml sprayed, adult German cockroaches
Description: Zero point zero six two five (0.00625) part of the compound of the present inventions (1) to (6) and (9) to (12) was dissolved in 10 parts of isopropyl alcohol and the solution was mixed with 89.99375 parts of deodorized kerosene to prepare a 0.00625% (w/v) oil solution.
Ten adult German cockroaches (Blattella germanica, 5 males and 5 females) were released in a test container (diameter 8.75 cm, 7.5 cm high, the bottom face is made of 16 mesh metallic wire), the inner face on which butter was applied, and the container was set at the bottom of a test chamber (bottom face: 46 cm×46 cm, height: 70 cm).
(§1) Each 1.5 ml of the oil solution of the compound of the present invention (1) to (6) and (9) to (12) was sprayed using a spray gun at a pressure of 0.4 kg/cm^2 from 60 cm higher than the upper face of the container. Thirty seconds after the spraying, the container was pulled out from the chamber. After a prescribed time, the number of knocked-down cockroaches was counted and a knock-down ratio was determined (repeated once). A knocked-down ratio was calculated by the following equation. Knocked-down ratio(%)=(Number of knocked-down cockroaches/Number of test cockroaches)×100 The results (2 minutes after spraying) are shown in Table 2.

[2] = system: American cockroaches (Periplaneta Americana); assay: Test Example 1: oil solution spray knock-down test on American cockroaches; conditions: 0.1% (w/v) oil solution, 1.5 ml sprayed, adult American cockroaches
Description: Zero point one (0.1) part of the compound of the present inventions (1) to (6) was dissolved in 10 parts of isopropyl alcohol and the solution was mixed with 89.9 parts of deodorized kerosene to prepare a 0.1% (w/v) oil solution.
as §1, with “Six adult American cockroaches (Periplaneta Americana, 3 males and 3 females) were released in a test container (diameter 12.5 cm, 10 cm high, the bottom face is made of 16 mesh metallic wire), the inner face on which butter was applied, and the container was set at the bottom of a test chamber (bottom face: 46 cm×46 cm, height: 70 cm). Each” for “Each”, “(6)” for “(6) and (9) to (12)”, “twice). The” for “once). A”, “cockroaches)×100” for “cockroaches)×100 The results (2 minutes after spraying) are shown in Table 2.”
For comparison, the test was conducted in the same manner as the above, except for using 2,5-dioxo-3-(2-propynyl)imidazolidinylmethyl=(1R)-trans-3-(2-methyl-1-propenyl)-2,2-dimethylcyclopropane carboxylate (compound described in Pesticide Science, 10, p. 291 (1979), hereinafter referred to as the comparative compound (1)) represented by the following formula:
[drawing 41] and 2,5-dioxo-3-(2-propynyl)imidazolidinylmethyl=(1R)-cis-3-((Z)-2-cyano-2-methoxyethenyl)-2,2-dimethylcyclopropane carboxylate (compound described in JP-A-60-16962, hereinafter referred to as the comparative compound (2)) represented by the following formula: […]

[3] = system: American cockroaches (Periplaneta Americana); assay: Test Example 8: oil solution spray knock-down test on American cockroaches, 3 minutes; conditions: 0.1% (w/v) oil solution, 1.5 ml sprayed, adult American cockroaches
Description: Zero point one (0.1) part of the compound of the present inventions (1) to (6) and (9) to (12) was dissolved in 10 parts of isopropyl alcohol and the solution was mixed with 89.9 parts of deodorized kerosene to prepare a 0.1% (w/v) oil solution.
(§2) Six adult American cockroaches (Periplaneta Americana, 3 males and 3 females) were released in a test container (diameter 12.5 cm, 10 cm high, the bottom face is made of 16 mesh metallic wire), the inner face on which butter was applied, and the container was set at the bottom of a test chamber (bottom face: 46 cm×46 cm, height: 70 cm). Each 1.5 ml of the oil solution of the compound of the present invention (1) to (6) and (9) to (12) was sprayed using a spray gun at a pressure of 0.4 kg/cm^2 from 60 cm higher than the upper face of the container. Thirty seconds after the spraying, the container was pulled out from the chamber. Three minutes after spraying, the number of knocked-down cockroaches was counted and a knock-down ratio was determined (repeated twice). The knocked-down ratio was calculated by the following equation. Knocked-down ratio(%)=(Number of knocked-down cockroaches/Number of test cockroaches)×100

[4] = system: houseflies (Musca domestica); assay: Test Example 4: oil solution spray knock-down test on houseflies in glass chamber; conditions: 0.025% (w/v) oil solution, 0.7 ml sprayed into 70 cm cubic glass chamber; adult houseflies; five minutes after spraying
Description: (§3) Zero point zero two five (0.025) part of the compound of the present invention (1) and (13) was dissolved in 10 parts of isopropyl alcohol, and the solution was mixed with 89.975 parts of deodorized kerosene to prepare a 0.025% (w/v) oil solution.
(§4) Ten adult houseflies (Musca domestica) were released in a cubic glass chamber having each side of 70 cm, and 0.7 ml of the oil solution of the compound of the present invention (1) and (13) was sprayed into the chamber through a small window on the side of the chamber using a spraying gun at a pressure of 0.9 kg/cm^2. Five minutes after spraying, the number of knocked-down flies was counted and a knock-down ratio was determined. A knocked-down ratio was calculated by the following equation. Knocked-down ratio(%)=(Number of knocked-down flies/Number of test flies)×100

[5] = system: common mosquitoes (Culex pipens pallens); assay: Test Example 3: oil solution spray knock-down test on common mosquitoes in glass chamber; conditions: 0.025% (w/v) oil solution sprayed into 70 cm cubic glass chamber; adult female common mosquitoes; three minutes after spraying
Description: as §3
as §4, with “female common mosquitoes (Culex pipens pallens)” for “houseflies (Musca domestica)”, “cm. The” for “cm, and 0.7 ml of the”, “Three” for “Five”, “mosquitoes” for “flies”, “mosquitoes/Number” for “flies/Number”, “mosquitoes)×100” for “flies)×100”

[6] = system: American cockroaches (Periplaneta fuliginosa); assay: Test Example 7: oil solution spray knock-down test on cockroaches (Periplaneta fuliginosa); conditions: 0.1% (w/v) oil solution, 1.5 ml sprayed; adult cockroaches (Periplaneta fuliginosa); one minute after spraying
Description: Zero point one (0.1) part of the compound of the present invention (4) was dissolved in 10 parts of isopropyl alcohol and the solution was mixed with 89.9 parts of deodorized kerosene to prepare a 0.1% (w/v) oil solution.
as §2, with “fuliginosa,” for “Americana,”, “One point five (1.5)” for “Each 1.5”, “(4)” for “(1) to (6) and (9) to (12)”, “One” for “Three”, “cockroaches)×100 The knocked-down ratio of the compound of the present invention (4) was 100%.” for “cockroaches)×100”

SMILES | Knock-down ratio (%) 2 minutes after spraying [1] [%] | Knock-down ratio (%) 2 minutes after spraying [2] [%] | Knock-down ratio (%) 3 minutes after spraying [3] [%] | Knocked-down ratio [4] [%] | Knocked-down ratio [5] [%] | Knocked-down ratio [6] [%]
C#CCN1CC(=O)N(COC(=O)[C@@H]2[C@@H](C=C(C#N)SCCCC)C2(C)C)C1=O [compound of the present invention (5), 2,5-dioxo-3-(2-propynyl)imidazolidinylmethyl=(1R)-trans-3-[(1EZ)-2-cyano-2-(butylthio)ethenyl]-2,2-dimethylcyclopropane carboxylate] | 100 | 83 | 100 | – | – | –
C#CCN1CC(=O)N(COC(=O)[C@@H]2[C@@H](C=C(C#N)SC)C2(C)C)C1=O (relative stereo) [compound of the present invention (1), 2,5-dioxo-3-(2-propynyl)imidazolidinylmethyl=(1R)-trans-3-[(1EZ)-2-cyano-2-(methylthio)ethenyl]-2,2-dimethylcyclopropane carboxylate] | – | 100 | – | 100 | 100 | –
C#CCN1CC(=O)N(COC(=O)[C@@H]2[C@@H](/C=C(\C#N)SCC)C2(C)C)C1=O [compound of the present invention (13), 2,5-dioxo-3-(2-propynyl)imidazolidinylmethyl=(1R)-trans-3-[(1E)-2-cyano-2-(ethylthio)ethenyl]-2,2-dimethylcyclopropane carboxylate] | 100 | – | 100 | 100 | 100 | –
C#CCN1CC(=O)N(COC(=O)[C@@H]2[C@@H](C=C(C#N)SC(C)C)C2(C)C)C1=O [compound of the present invention (6), 2,5-dioxo-3-(2-propynyl)imidazolidinylmethyl=(1R)-trans-3-[(1EZ)-2-cyano-2-(isopropylthio)ethenyl]-2,2-dimethylcyclopropane carboxylate] | 100 | 92 | 100 | – | – | –
C#CCN1CC(=O)N(COC(=O)[C@@H]2[C@H](/C=C(/C#N)OC)C2(C)C)C1=O [comparative compound (2), 2,5-dioxo-3-(2-propynyl)imidazolidinylmethyl=(1R)-cis-3-((Z)-2-cyano-2-methoxyethenyl)-2,2-dimethylcyclopropane carboxylate, reference compound] | – | 42 | – | – | – | –
C#CCN1CC(=O)N(COC(=O)[C@@H]2[C@@H](C=C(C)C)C2(C)C)C1=O [comparative compound (1), 2,5-dioxo-3-(2-propynyl)imidazolidinylmethyl=(1R)-trans-3-(2-methyl-1-propenyl)-2,2-dimethylcyclopropane carboxylate, reference compound] | – | 58 | – | – | – | –
C#CCN1CC(=O)N(COC(=O)[C@@H]2[C@@H](C=C(C#N)SC)C2(C)C)C1=O (relative stereo) [compound of the present invention (10), 2,5-dioxo-3-(2-propynyl)imidazolidinylmethyl=(1R)-trans-3-[(1EZ)-2-cyano-2-(methylthio)ethenyl]-2,2-dimethylcyclopropane carboxylate] | 100 | – | 100 | – | – | –
C#CCN1CC(=O)N(COC(=O)[C@@H]2[C@@H](C=C(C#N)SCCC)C2(C)C)C1=O [compound of the present invention (3), 2,5-dioxo-3-(2-propynyl)imidazolidinylmethyl=(1R)-trans-3-[(1EZ)-2-cyano-2-(propylthio)ethenyl]-2,2-dimethylcyclopropane carboxylate] | 100 | 100 | 100 | – | – | –
C#CCN1CC(=O)N(COC(=O)[C@@H]2[C@@H](C=C(C#N)SCC)C2(C)C)C1=O (relative stereo) [compound of the present invention (9), 2,5-dioxo-3-(2-propynyl) imidazolidinylmethyl=(1R)-trans-3-[(1EZ)-2-cyano-2-(ethylthio)ethenyl]-2,2-dimethylcyclopropane carboxylate] | 100 | – | 100 | – | – | –
C#CCN1CC(=O)N(COC(=O)[C@@H]2[C@@H](C=C(C#N)SCC)C2(C)C)C1=O (relative stereo) [compound of the present invention (2), 2,5-dioxo-3-(2-propynyl)imidazolidinylmethyl=(1R)-trans-3-[(1EZ)-2-cyano-2-(ethylthio)ethenyl]-2,2-dimethylcyclopropane carboxylate] | – | 100 | – | – | – | –
C#CCN1CC(=O)N(COC(=O)[C@@H]2[C@@H](/C=C(\C#N)SC)C2(C)C)C1=O [compound of the present invention (4), 2,5-dioxo-3-(2-propynyl)imidazolidinylmethyl=(1R)-trans-3-[(1E)-2-cyano-2-(methylthio)ethenyl]-2,2-dimethylcyclopropane carboxylate] | 100 | 100 | 100 | – | – | 100

From US8507692B2, “Ester compound and use thereof” (Sumitomo Chemical Company, Limited, priority 2010, dated 2013)
